We go through two molecules from paper PMC9147645, “Food-Derived β-Carboline Alkaloids Ameliorate Lipid Droplet Accumulation in Human Hepatocytes” (Pharmaceuticals, 2022).

A short description of data set [1]: Cytotoxicity / lipocytotoxicity assay (CCK-8). It is filed as cell-based. The following applies: human, HepG2 cells. How it is done:
(§1) HepG2 cells were purchased from the American Type Culture Collection (ATCC) (Manassas, VA, USA). High-glucose DMEM containing 10% heat-inactivated FBS and 1% penicillin–streptomycin was maintained under a humidified atmosphere at 37 °C with 5% CO2, as indicated in the Supplementary Materials. HepG2 cells (1.5 × 10^4/well) in DMEM supplemented with 10% FBS were seeded into a 96-well plate. A cytotoxicity assay was performed according to the manufacturer’s protocol using CCK-8 (Dojindo Molecular Technologies), as indicated in the Supplementary Materials (Materials and Methods). […]
(§2) 2 1.2. Cytotoxicity assay […] HepG2 cells (1.5 × 10^4/well) in DMEM supplemented with 10% FBS were under reduced pressure, and H2O (25 ml) was added. Then the solution was seeded into a 96-well plate. The cytotoxicity assay was done using CCK-8 extracted with AcOEt after adjusted to 9–10 with aq. NaOH solution. The organic (Dojindo Molecular Technologies) according to the manufacturer's protocol. […]
(§3) Compounds 1 and 3. To a stirred soln. Compound 10 (218 mg, 1.00 mmol), 5- Technologies, Rockville, USA) according to the manufacturer ’sinstructions. Cell Acetoxymethylfurfural (1, 168 mg, 1.00 mmol) and Nano CuO (7.955 mg, 0.1 suspension (100 μl/well) was inoculated in a 96-well plate (Iwaki, Japan), and mmol) were added 6 ml of DMF. The mixture was stirred at 90℃ for 16 h. The pH once monolayers were observed, treatments were added (n = 3 per each of the aqueous solution was adjusted to 9–10 with aq NaOH solution after adding treatment). Cells were then pre-incubated with the treatments for 24 h before H O. After extracting the solution with AcOEt, the organic layer was washed with assay to determine cell viability.Absorbance was measured at 450 nm using a 2 plate reader (PerkinElmer-ARVO-MX-ID 10533234, Japan). […]
(§4) [5-(hydroxymethyl)-2-furanyl]-1H-pyrido[3,4-b]indole-3-carboxylic acid (2, CAS culture medium was removed from each dish, and cells were washed Registry Number 896466-77-6); flazine methyl ester acetate (3, CAS Registry and rinsed with 1× PBS. Cells were then fixed for 20 min in 10% formalin and Number 104537-95-3); flazin (4, CAS Registry Number 100041-05-2); washed twice using PBS. Then, Oil Red O dye was added to the dishes and incubated for 20 min. Finally, the dye was removed from each dish and cells 5

The subject of data set [2] is HepG2 cells. In words: Cytotoxicity / lipocytotoxicity assay (CCK-8). It is filed as cell-based. Conditions: HepG2. How it is done: as §1, §2, §3, §4
Data set [3] relates to HepG2 cells. In words: Lipid droplet accumulation inhibition (LDAI) assay, Oil Red O, oleic acid-loaded cells. Conditions: HepG2 + 0.25 mM oleic acid, vs untreated control (+OA). The data set is classed as cell-based, human. As to the method: LDAI assay: LDAI activity was determined using an Oil Red O assay with 24-well plates (n = 4 per treatment). Staining of LDs in cultured hepatocytes was performed according to the manufacturer’s instructions, based on the Oil Red O staining assay. Briefly, HepG2 cells (1.5 × 10^4/well) were supplemented with 10% FBS, cultured, seeded in 35-mm dishes, and treated with the tested samples after 24 h. Oil Red O, a fat-soluble dye, is widely used for staining neutral lipids in LDs, as described in the Supplementary Materials. […]
2 1.2. Cytotoxicity assay dropwise under ice-cooling. […]
Lipid droplet accumulation inhibition assay and Real-Ti me LDAI acid tryptophan (9) and compound 12 were subjected to acid conversion at 90 °C accumulation in acetic acid to obtain compound 2 (1H and 13C, see in Supporting Information). Lipid droplet accumulation inhibition (LDAI) activity was determined using an Synthesis of Compound 4. To a stirred soln . compound 3 in MeOH was added oilred assay in a 24-well plate according to the manufacturer ’sinstructions (n = 4 with NaOH (2 mol/L). Compound 4 was obtained after stirringthe mixture at 65℃ per each treatment). Real-time oleic induced-LD inhibition was performed by for 5 h. (1H and 13C, see Figures S10 and S11). We also prepared similar using a Nikkon microscope. Morphological analysis of HepG2 cells after compounds without any substituent at the C-1 position in the C-ring using a one- treatment with control(-OA) and (+OA) or compound at different concentrations pot Pictet–Spengler reaction (6-8). was determined by staining with AO/EB.
Synthetic b-carboline alkaloids (1-8): 1.4. Oil Red O Staining.
CAS Registry Number of all the series of synthetic b-carboline alkaloids (1-8) HepG2 cells were cultured and treated in 35 mm dishes, as described above. were subjected to biological evaluation: 1H-Pyrido[3,4-b]indole-3-carboxylic acid, Oil Red O dye was used for LD staining. Oil Red O was dissolved in isopropanol 1-[5-[(acetyloxy)methyl]-2-furanyl]-2,3,4,9-tetrahydro-, methyl ester, (1S-trans)- as 3 mg/mL and diluted with water so that isopropanol became 60%. Oil Red O (9CI) (1,CAS Registry Number 11 5 1 0 7-75-0;11 5 1 0 7-76-1);2,3,4,9-Tetrahydro-1-solutionwasfilteredbya0.4 μm pore syringe filter.For cellular staining, the […]

Data set [4] has as its system HepG2 cells. Description: LD fluorescence staining assay (Oil Red O / Hoechst). It is filed as cell-based, human. Conditions: 200 μM, HepG2 loaded with OA, Oil Red O and Hoechst 33,342. How it is done: LD fluorescence staining assay: The staining was performed with modifications based on our previous report. HepG2 cells were seeded in 35 mm glass bottom dishes at 4.0 × 10^5/plate. After 24 h of incubation, OA and all samples were processed for 24 h. Oil Red O staining was performed, then the Hoechst reagent solution mixed with PBS was added and incubated in the dark for 25 min. Images were then captured using a BZ-9000 fluorescence microscope (Keyence Co., Ltd., Osaka, Japan).

Where [5] appears, read: HepG2, DMEM loaded with fatty acid (+OA), read-out: Lipocytotoxicity (LC50), concentration at which 50% of cells died.
Setting [6] is: HepG2, DMEM without fatty acid (−OA), read-out: Cytotoxicity (CC50), concentration at which 50% of cells died.

Each structure is given as a SMILES string. Where two headings read alike, the source gives them in different places.

Take `O=C(O)c1cc2c([nH]c3ccccc32)c(-c2ccc(CO)o2)n1` [Compound 4, flazin]: the CC50 at 24 h in data set [1] (setting [5]) is 600 µM; in data set [1] (setting [6]), > 700 µM. For the same molecule, the “Cytotoxicity (in words)” value in the data set with HepG2 cells [2] is “no cytotoxicity”. Besides, the LDAI entry in the data set with HepG2 cells [3] (100 μM, 24 h) is “ns”. In the data set on HepG2 cells [3] (Homo sapiens, HepG2, 24 h), the inhibition (commonly the change of the read-out against control, counted positive when it falls) at 200 µM was determined as 20%. Besides, in the data set with HepG2 cells [3] (Homo sapiens, HepG2, 24 h), the inhibition at 400 µM stood at 77.5%. Besides, in the data set with HepG2 cells [4], the “LDs in fluorescence image” value is “significantly inhibited”.
As to `O=C(O)C1Cc2c([nH]c3ccccc23)C(c2ccc(CO)o2)N1` (centres unmarked) [Compound 2, 1,2,3,4-tetrahydro-1-(5-(hydroxymethyl)-2-furanyl)-9H-pyrido [3,4-b]indole-3-carboxylic acid], the CC50 at 24 h in data set [1] (setting [5]) came out at 484 µM. Also, the CC50 at 24 h in data set [1] (setting [6]) was > 700 µM. The “Cytotoxicity (in words)” value in the data set with HepG2 cells [2] is given as “no cytotoxicity”. The inhibition at 100 µM with HepG2 cells [3] (Homo sapiens, HepG2, 24 h, 100 μM) came out at 25.5%. Also, in the data set with HepG2 cells [3] (Homo sapiens, HepG2, 24 h), the inhibition at 200 µM was 29.1% and the inhibition at 400 µM stood at 74%. Further, the “LDs in fluorescence image” value in the data set with HepG2 cells [4] is given as “significantly inhibited”.
